This is an account of results in PMC9122913 (Nature Communications, 2022).

This assay concerns the target T1, Cyclin-dependent kinase 2 (CDK2) (Homo sapiens, UniProt P24941).
T1 construct: Full-length human CDK2, GST-N-terminal tagged fusion protein
The experiment in a line: pulldown of purified GST-CDK2 with HHT-conjugated beads (free HHT competes in lysate pulldown); DARTS in HEK293 lysate; CDK2/Cyclin A2 kinase assay inhibited at […] HHT. In kind it is binding. From the text: Thus, hydrogen-bonds with T47, R50 and R150 appear critical

In the case of `COC(=O)C[C@](O)(CCCC(C)(C)O)C(=O)O[C@@H]1C(OC)=C[C@]23CCCN2CCc2cc4c(cc2[C@H]13)OCO4` [HHT, homoharringtonine], the “pulldown of purified GST-CDK2 with HHT-conjugated beads (free HHT competes in ly)” value is “interaction between HHT and CDK2-3As was abolished (Fig. 1G). Thus, hydrogen-bonds with T47, R50 and R150 appear critical”.
